Source: patent US20070010484A1, “Method for treating or inhibiting the effects of injuries or diseases that result in neuronal degeneration and method for promoting neurogenesis” (YEDA RESEARCH AND DEVELOPMENT CO. LTD., priority 2003, published 2007)

How the values were obtained:
[1] = system: IGF-1; assay: IGF-1 expression in primary microglial cultures, immunocytochemistry; format: cell-based, C57Bl/6J mice
Protocol: Primary microglial culture. Brains from neonatal (P0-P1) C57Bl/6J mice were stripped of their meninges and minced with scissors under a dissecting microscope (Zeiss, Stemi DV4, Germany) in Leibovitz-15 medium (Biological Industries, Beit Ha-Emek, Israel). After trypsinization (0.5% trypsin, 10 min, 37° C./5% CO2), the tissue was triturated. The cell suspension was washed in culture medium for glial cells (DMEM supplemented with 10% fetal calf serum (FCS; Sigma-Aldrich, Rehovot, Israel), 1-glutamine (1 mM), sodium pyruvate (1 mM), penicillin (100 U/ml), and streptomycin ([…])) and cultured at 37° C./5% CO2 in 75-cm2 Falcon tissue-culture flasks (BD Biosciences) coated with poly-D-lysine (PDL) ([…]; Sigma-Aldrich, Rehovot) in borate buffer (2.37 g borax and 1.55 g boric acid dissolved in 500 ml sterile water, pH 8.4) for 1 h, then rinsed thoroughly with sterile, glass-distilled water. Half of the medium was changed after 6 h in culture and every 2nd day thereafter, starting on day 2, for a total culture time of 10-14 days. […]

[2] = system: PC12 cells; assay: Neurite outgrowth assay in NGF-stimulated PC12 cells; format: cell-based, rat; conditions: PC12 cells on collagen, NGF 10 ng/ml, sulfated CSPG-DSs added; mean±SD
Protocol: PC12 cell line: Rat pheochromocytoma (PC12) cells were cultured in DMEM containing 8% horse serum and either 8% FCS (culture medium) or 1% FCS (differentiation medium), and antibiotics. For assays of neurite outgrowth, the cells were plated (10^5 cell/well) on 13-mm glass coverslips, precoated with collagen (500 μg/ml) in 24-well plates. Neurite outgrowth assays: PC12 cells were cultured for 24-72 h while being stimulated with 10 ng/ml NGF, with or without CSPG-DSs. Cell morphology was visualized under a phase-contrast microscope and neurite lengths were measured using ImagePro. At least 200 cells were measured for each condition.

[3] = system: delayed-type hypersensitivity response in mice; assay: Delayed-type hypersensitivity (DTH) assay, ear swelling; format: in vivo; conditions: oxazalone-sensitized Balb/c mice, most efficient concentration of 1 μg/ml, relative to untreated
Protocol: Assay for delayed-type hypersensitivity. Groups of female inbred Balb/c mice (n=4 per group) were sensitized with 2% oxazalone (100 μl;) dissolved in acetone/olive oil (4:1 (vol/vol)) applied topically on the shaved abdominal skin. A delayed-type hypersensitivity (DTH) response was elicited 5 days later by challenge with 0.5% oxazalone in acetone/olive oil (10 μl applied topically to each side of one ear, and measured with an engineer's micrometer (Mitutoyo, Elk Grove Village, Ill., Tokyo, Japan)). Immediately before and 24 h after antigen challenge, the marked area was measured again.

[4] = system: experimental autoimmune encephalomyelitis in mice; assay: Experimental autoimmune encephalomyelitis (EAE); format: in vivo
Protocol: Induction of experimental autoimmune encephalomyelitis. Mice were immunized s.c. at one site in the flank with 200 μl of emulsion consisting of myelin oligodendrocyte glycoprotein (MOG) […] (300 μg per mouse) emulsified in CFA supplemented with 500 μg of Mycobacterium tuberculosis (Difco, Detroit, Mich.). Clinical symptoms of experimental autoimmune encephalomyelitis (EAE) were examined and scored daily, as follows: 0, no clinical disease; 0.5, piloerection; 1, tail weakness; 1.5, tail paralysis; 2, hindlimb weakness; 3, hindlimb paralysis; 3.5, forelimb weakness; 4, forelimb paralysis; 5, moribund state or death.

[5] = system: IFN-γ; assay: IFN-γ secretion by anti-CD3-activated T cells, ELISA; format: cell-based, human; conditions: 2 h pretreatment, then anti-CD3 activation 24 h
Protocol: Assay of IFN-γ secretion. Human T cells were purified and maintained in culture (RPMI containing 10% FCS, 1% pyruvate, 1% glutamine, 1% antibiotics, in a humidified atmosphere of 7% CO2in air), and the cells were activated for 2 h with the indicated concentrations of CSPG-DS. In order to stimulate the cells to secrete cytokines, they were replated (1×10^6 cells in 0.5 ml culture medium per well) in 24-well plates precoated with 1 μg/ml immobilized anti-CD3 mAb (non-tissue-culture grade). After 24 h the supernatants were collected and their IFN-γ contents determined by ELISA, using anti-IFN-γ mAb (Pharmingen, San Diego, Calif.) according to the manufacturer's instructions.

[6] = system: Organotypic hippocampal slice cultures (OHSC); assay: Organotypic hippocampal slice cultures, propidium iodide staining; format: cell-based; conditions: rat OHSCs, 2.5 μg/ml or 25 μg/ml, 24 h
Protocol: Organotypic hippocampal slice cultures (OHSC): OHSC were prepared as described (Franklin and Paxinos, 1997) from rats brains (Lewis aged 8-10 days) CSPG-DSs were added to the OHSCs for 24 h. Propidium iodide (5 μg/ml; Sigma) was then added to the medium for 30 min. The brain slices were examined under a Zeiss laser-scanning confocal microscope (LSM510) or a Zeiss Axioplane 100 fluorescence light microscope.

[7] = system: MHC II; assay: MHC II expression in microglia; format: cell-based
[8] = MOG-immunized mice, 5 μg injections on days 0, 3, 5 and 7

Structure (SMILES): CC(=O)N[C@H]1C(O)O[C@H](COS(=O)(=O)O)[C@H](O)[C@@H]1O[C@@H]1OC(C(=O)O)=C[C@H](O)[C@H]1O (stereo partly drawn) [CSPG-DS, 2-acetoamido-2-deoxy-3-O-(β-D-gluco-4-enepyranosyluronic acid)-6-O-sulfo-D-galactose]
- LPS-induced suppression of IGF-I expression ([1]; microglia pre-incubated with CSPG-DS (25 or 50 μg/ml) 1 h, then LPS 24 h): attenuated
- IGF-1 expression by microglia ([1]; mouse primary microglia): high levels
- mean neurite length [2]: 107±7.8 μm
- reduction in DTH response [3]: 40%
- duration of the disease (EAE) [4, 8]: shortened
- symptoms of the disease (EAE score) [4, 8]: significantly attenuated
- EAE disease with less frequent injections ([4]; injection on day 0 only, or days 0 and 7): alleviated the disease
- secretion of IFN-γ [5]: significant reduction
- neuronal loss (propidium iodide staining) [6]: significantly reduced
- MHC II expression in microglia [7]: activate microglia to express MHC II
